Data taken from patent EP4656642A1, “ESTROGEN RECEPTOR PROTEOLYSIS TARGETING CHIMERA COMPOUND AND USE THEREOF” (GAN & LEE PHARM CO., LTD, priority 2023, dated 2024).

Assays:
Format in all cases: cell-based
ERα [1] = target: T1, ERα (Homo sapiens, UniProt P03372); experiment: Degradation of ERα in T-47D cells (immunoblotting, 4 h); set-up: host or cells: T-47D
T1 sequence (P03372 1-595): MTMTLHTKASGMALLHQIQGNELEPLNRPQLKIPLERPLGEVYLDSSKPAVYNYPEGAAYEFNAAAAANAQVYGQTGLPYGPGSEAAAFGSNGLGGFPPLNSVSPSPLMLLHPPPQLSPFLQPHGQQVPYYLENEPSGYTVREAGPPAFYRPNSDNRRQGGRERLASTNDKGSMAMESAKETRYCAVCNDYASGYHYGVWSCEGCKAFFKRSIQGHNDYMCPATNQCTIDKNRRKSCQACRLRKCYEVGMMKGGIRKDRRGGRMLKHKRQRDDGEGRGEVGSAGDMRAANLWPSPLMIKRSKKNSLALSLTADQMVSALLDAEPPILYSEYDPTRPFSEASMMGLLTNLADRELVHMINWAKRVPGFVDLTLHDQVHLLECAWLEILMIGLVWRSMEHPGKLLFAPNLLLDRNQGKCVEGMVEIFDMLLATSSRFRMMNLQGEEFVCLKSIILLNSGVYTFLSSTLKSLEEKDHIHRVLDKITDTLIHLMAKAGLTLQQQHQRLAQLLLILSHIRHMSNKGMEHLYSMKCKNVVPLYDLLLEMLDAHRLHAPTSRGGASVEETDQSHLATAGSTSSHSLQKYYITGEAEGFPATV
Summary of the method: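 ERα protein levels were assessed by immunoblot of RIPA lysates (with protease inhibitor) after 4 h exposure at 37°C. Compound was added in DMSO to T-47D cells at final concentrations of 0.15-1000 nM.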

MCF-7 cells [2] = experiment: Inhibition of cell proliferation of MCF-7 cells (CCK-8, 6 days); settings: 6 days of treatment, Table 4
Description: Test Example 3 Inhibitory effect of the PROTAC compounds provided in the present disclosure on cell proliferation of MCF-7 cells
The complete medium required for MCF-7 cells (source ATCC) was DMEM (gibco, Product number :11995-065) basal medium containing 10% fetal bovine serum. MCF-7 cells were inoculated in 96-well plates at a density of 800 cells/well, and different concentrations of the PROTAC compounds 1-55 provided in the examples of the present disclosure and a positive control sample ARV-471 (source: Innochem) were prepared to treat the cells, and the cells were treated at 37°C in a cell culture incubator with 5% CO2 for 6 days. Cell viability was detected using a CCK-8 kit (Beyotime, Product number: C0040) according to the manufacturer's instructions. The IC50 values of each PROTAC compound after 6 days of treatment were calculated using GraphPadPrism software based on the inhibition rate, and the results are shown in Table 4. Table 4 IC50 values for inhibition of the proliferation of MCF-7 cells by the PROTAC compounds of the present disclosure and positive control sample

ERα [3] = target: T1, ERα; experiment: Degradation of ERα in MCF-7 cells (immunoblotting, 4 h); settings: 10nM compound
Summary of the method: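 Degradation rate reflects ERα band intensity, corrected to an internal reference protein, relative to control. Values come from Western blotting of lysates from MCF-7 cells exposed 4 h at 37°C to compounds at final concentrations of 0.15-1000nM.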

T-47D cells = experiment: Inhibition of cell proliferation in T-47D cells (CCK-8, 6 days); settings: 6 days of treatment
Summary of the method: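 Viability read-out was CCK-8 after 6 days of compound treatment (37 °C, 5% CO2) across graded concentrations. Cells were T-47D seeded at 3,000 per well in 1640 medium plus 10% FBS. IC50 was calculated against proliferation.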

MCF-7 cells [4] = experiment: Inhibition of cell proliferation of MCF-7 cells (CCK-8, 9 days); settings: treated for 9 days, CCK-8 kit (Table 6)
Summary of the method: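 Read-out was CCK-8 viability after 9-day continuous exposure (37°C, 5% CO2) of MCF-7 cells plated at 800/well in 10% FBS DMEM across several compound concentrations. Values are proliferation IC50s.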

| Degradation rate (%) of ERα in T-47D cells (ERα [1]; 10nM compound) [%] | IC50 (MCF-7 cells [2]) [µM] | Degradation rate (%) of ERα in MCF-7 cells (ERα [3]) [%] | IC50 (T-47D cells; Table 2) [µM] | IC50 (MCF-7 cells [4]) [µM] | IC50 (T-47D cells; Table 3) [µM] | Degradation rate (%) of ERα in T-47D cells (ERα [1]; 1nM compound) [%] | SMILES |
| --- | --- | --- | --- | --- | --- | --- | --- |
| -15 | 4.36 | 4 | 0.015 |  |  |  | O=C1CCC(N2Cc3cc4c(cc3C2=O)OCC2(CCN(C3CCC5(CC3)CN(c3ccc(C6c7ccc(O)cc7CCC6c6ccccc6)cc3)C5)CC2)O4)C(=O)N1 (stereo not drawn) [A27] |
| -1 | 4.6 | 4 | 0.127 | 0.0046 | 0.127 |  | O=C1CCC(N2C(=O)c3cc4c(cc3C2=O)OC2(CC4)CCN(C3CCC4(CC3)CCN(c3ccc(C5c6ccc(O)cc6CCC5c5ccccc5)cc3)CC4)CC2)C(=O)N1 (stereo not drawn) [A12] |
| -22 | 19 | -42 | 0.104 | 0.019 | 0.104 |  | O=C1CCC(N2C(=O)c3cc4c(cc3C2=O)C2(CCN(CC3CCN(c5ccc(C6c7ccc(O)cc7CCC6c6ccccc6)cc5)CC3)CC2)CO4)C(=O)N1 (stereo not drawn) [A8] |
| 36 | 11.6 | 18 | 0.025 |  |  |  | O=C1CCC(N2C(=O)c3cc4c(cc3C2=O)C2(CCN(C3CCC5(CC3)CN(c3ccc(C6c7ccc(O)cc7CCC6c6ccccc6)cc3)C5)CC2)CO4)C(=O)N1 (stereo not drawn) [A20] |
| 12 | 24.5 | -9 | 0.031 |  |  |  | O=C1CCC(N2C(=O)c3cc4c(cc3C2=O)OCC2(CCN(C3CC5(CCN(c6ccc(C7c8ccc(O)cc8CCC7c7ccccc7)cc6)CC5)C3)CC2)C4)C(=O)N1 (stereo not drawn) [A13] |
| -2 | 5.48 | 8 | 0.215 |  |  |  | O=C1CCC(N2Cc3cc4c(cc3C2=O)CCC2(CCN(C3C[C@@H]5CN(c6ccc(C7c8ccc(O)cc8CCC7c7ccccc7)cc6)C[C@@H]5C3)CC2)O4)C(=O)N1 (stereo partly drawn) [A29] |
| -11 | 49.5 | -17 | 0.008 |  |  |  | O=C1CCC(N2C(=O)c3cc4c(cc3C2=O)OC2(CC4)CCN(CC3CCN(c4ccc(C5c6ccc(O)cc6CCC5c5ccccc5)cc4)CC3)CC2)C(=O)N1 (stereo not drawn) [A1] |
| 16 | 1.19 | -2 | 0.063 |  |  |  | O=C1CCC(N2C(=O)c3cc4c(cc3C2=O)OCC2(CCN(C3CCC5(CC3)CCN(c3ccc(C6c7ccc(O)cc7CCC6c6ccccc6)cc3)CC5)CC2)C4)C(=O)N1 (stereo not drawn) [A15] |
| -14 | 99.9 | -29 | 0.167 |  |  |  | O=C1CCC(N2C(=O)c3cc4c(cc3C2=O)OC2(CC4)CCN(c3ccc(C4c5ccc(O)cc5CCC4c4ccccc4)cc3)CC2)C(=O)N1 (stereo not drawn) [A7] |
| 19 | 0.94 | 13 | 0.057 |  |  |  | O=C1CCC(N2Cc3cc4c(cc3C2=O)OC2(CC4)CCN(C3CCC4(CC3)CCN(c3ccc(C5c6ccc(O)cc6CCC5c5ccccc5)cc3)CC4)CC2)C(=O)N1 (stereo not drawn) [A22] |
| -15 | 2.52 | 4 | 0.019 |  |  |  | O=C1CCC(N2Cc3cc4c(cc3C2=O)CCC2(CCN(C3CCC5(CC3)CCN(c3ccc(C6c7ccc(O)cc7CCC6c6ccccc6)cc3)CC5)CC2)O4)C(=O)N1 (stereo not drawn) [A21] |
| 40 | 3.78 | 13 | 0.021 |  |  |  | O=C1CCC(N2Cc3cc4c(cc3C2=O)OCC2(CCN(C3CCC5(CC3)CCN(c3ccc(C6c7ccc(O)cc7CCC6c6ccccc6)cc3)CC5)CC2)O4)C(=O)N1 (stereo not drawn) [A26] |
|  | 51.7 |  | 0.022 |  |  |  | O=C1CCC(N2Cc3cc4c(cc3C2=O)OC2(CC4)CN(C3CC4(CCN(c5ccc(C6c7ccc(O)cc7CCC6c6ccccc6)cc5)CC4)C3)C2)C(=O)N1 (stereo not drawn) [M8] |
|  | 44.1 |  | 0.117 |  |  |  | O=C1CCC(N2Cc3cc4c(cc3C2=O)CCC2(CCN(CC3CN(c5ccc(C6c7ccc(O)cc7CCC6c6ccccc6)cc5)C3)CC2)O4)C(=O)N1 (stereo not drawn) [M1] |
| -23 | 48.2 | -17 | 0.177 |  |  |  | O=C1CCC(N2C(=O)c3cc4c(cc3C2=O)OC2(CC4)CCN(CC3CN(c4ccc(C5c6ccc(O)cc6CCC5c5ccccc5)cc4)C3)CC2)C(=O)N1 (stereo not drawn) [A6] |
| 46 | 30.2 | 23 | 0.0118 |  |  |  | O=C1CCC(N2Cc3cc4c(cc3C2=O)OC2(CC4)CN(C3CCC4(CC3)CCN(c3ccc(C5c6ccc(O)cc6CCC5c5ccccc5)cc3)CC4)C2)C(=O)N1 (stereo not drawn) [A30] |
| -92 | 10.2 | -26 | 0.229 |  |  |  | O=C1CCC(N2Cc3cc4c(cc3C2=O)OC2(CC4)CCN(CC3CCN(c4ccc(C5c6ccc(O)cc6CCC5c5ccccc5)cc4)C3)CC2)C(=O)N1 (stereo not drawn) [B2] |
| -37 | 37.2 | -3 | 0.035 |  |  |  | O=C1CCC(N2C(=O)c3cc4c(cc3C2=O)OC2(CC4)CCN(C3CC4(CCN(c5ccc(C6c7ccc(O)cc7CCC6c6ccccc6)cc5)CC4)C3)CC2)C(=O)N1 (stereo not drawn) [A10] |
| -9 | 10 | -34 | 0.0569 |  |  |  | O=C1CCC(N2Cc3cc4c(cc3C2=O)CCC2(CCN(CC3CCN(c5ccc(C6c7ccc(O)cc7CCC6c6ccccc6)cc5)C3)CC2)O4)C(=O)N1 (stereo not drawn) [B4] |
|  | 5.66 |  | 0.313 |  |  |  | O=C1CCC(N2Cc3cc4c(cc3C2=O)OC2(CC4)CCN(C3CC4(C3)CN(c3ccc(C5c6ccc(O)cc6CCC5c5ccccc5)cc3)C4)CC2)C(=O)N1 (stereo not drawn) [M5] |
| 56 | 13.6 |  | 0.017 |  |  | 17 | O=C1CCC(N2Cc3cc4c(cc3C2=O)OCC2(CCN(C3CC5(CCN(c6ccc(C7c8ccc(O)cc8CCC7c7ccccc7)cc6)CC5)C3)CC2)O4)C(=O)N1 (stereo not drawn) [M7] |
| 54 | 4.38 |  | 0.011 |  |  | 22 | O=C1CCC(N2Cc3cc4c(cc3C2=O)CCC2(CCN(C3CC5(CCN(c6ccc(C7c8ccc(O)cc8CCC7c7ccccc7)cc6)CC5)C3)CC2)O4)C(=O)N1 (stereo not drawn) [M6] |
| -1 | 23.4 | 8 | 0.02 |  |  |  | O=C1CCC(N2C(=O)c3cc4c(cc3C2=O)OC2(CCN(C3CCC5(CC3)CCN(c3ccc(C6c7ccc(O)cc7CCC6c6ccccc6)cc3)CC5)CC2)C4)C(=O)N1 (stereo not drawn) [A25] |
| 4 | 4.82 | 5 | 0.044 |  |  |  | O=C1CCC(N2C(=O)c3cc4c(cc3C2=O)OCC2(CCN(C3CCC5(CC3)CN(c3ccc(C6c7ccc(O)cc7CCC6c6ccccc6)cc3)C5)CC2)C4)C(=O)N1 (stereo not drawn) [A14] |
|  | 86.8 |  | 0.202 |  |  |  | O=C1CCC(N2C(=O)c3cc4c(cc3C2=O)OC2(CC4)CCN(C3CC4(C3)CN(c3ccc(C5c6ccc(O)cc6CCC5c5ccccc5)cc3)C4)CC2)C(=O)N1 (stereo not drawn) [O3] |
